Experimental data from ChEMBL document CHEMBL1127857, “Antitumor agents. 155. Synthesis and biological evaluation of 3',6,7-substituted 2-phenyl-4-quinolones as antimicrotubule agents” (J Med Chem, 1994).

Tests used:
RXF 393 = experiment: Tested for in vitro tumor cell growth inhibition of renal cancer cell line RXF-393; assay type: functional; settings: Homo sapiens
SF-268 = experiment: Tested for in vitro tumor cell growth inhibition of CNS tumor cell line SF-268; assay type: functional; settings: Homo sapiens
DU-145 = experiment: Tested for in vitro tumor cell growth inhibition of prostate cancer cell line DU-145; assay type: functional; settings: Homo sapiens
Tubulin (Bos taurus) = Tubulin (Bos taurus) (UniProt Q6B856+Q862L2+Q862F3); experiment: Inhibition of colchicine binding to tubulin was evaluated only when polymerization IC50 <=1.0 uM; assay type: protein assay
Tubulin = Tubulin (Bos taurus, UniProt Q6B856+Q862L2+Q862F3); experiment: Inhibition of bovine tubulin polymerization; assay type: functional
KM-20L2 = experiment: Tested for in vitro tumor cell growth inhibition of colon cancer cell line […]; assay type: functional; settings: Homo sapiens
K562 = experiment: Tested for in vitro tumor cell growth inhibition of leukemia cell line K-562; assay type: functional; settings: Homo sapiens
SF-295 = experiment: Tested for in vitro tumor cell growth inhibition of CNS tumor cell line SF-295; assay type: functional; settings: Homo sapiens
NCI-H226 = experiment: Tested for in vitro tumor cell growth inhibition of non-small cell lung cancer cell line NCI-H226; assay type: functional; settings: Homo sapiens
MDA-N = experiment: Tested for in vitro tumor cell growth inhibition of breast cancer cell line MDA-N; assay type: functional; settings: Homo sapiens
HCT-116 = experiment: Tested for in vitro tumor cell growth inhibition of colon cancer cell line HCT116; assay type: functional; settings: Homo sapiens
SK-MEL-5 = experiment: Tested for in vitro tumor cell growth inhibition of melanoma cell line SK-Mel-5; assay type: functional; settings: Homo sapiens
OVCAR-3 = experiment: Tested for in vitro tumor cell growth inhibition of ovarian cancer cell line OVCAR-3; assay type: functional; settings: Homo sapiens
OVCAR-4 = experiment: Tested for in vitro tumor cell growth inhibition of ovarian cancer cell line OVCAR-4; assay type: functional; settings: Homo sapiens

Compound | GI50 (RXF 393) [nM] | GI50 (SF-268) [nM] | GI50 (DU-145) [nM] | inhibition (Tubulin (Bos taurus)) [%] | IC50 (Tubulin) [nM] | GI50 (KM-20L2) [nM] | GI50 (K562) [nM] | GI50 (SF-295) [nM] | GI50 (NCI-H226) [nM] | GI50 (MDA-N) [nM] | GI50 (HCT-116) [nM] | GI50 (SK-MEL-5) [nM] | GI50 (OVCAR-3) [nM] | GI50 (OVCAR-4) [nM]
Oc1cc(-c2cccc(OCc3ccccc3)c2)nc2cc3c(cc12)OCO3 | 407 | 12900 | 1100 | 26 | 450 | 224 | 363 | 447 | 229 | 145 | 389 | 282 | 245 | –
COc1cccc(-c2cc(O)c3cc(N4CCN(C)CC4)ccc3n2)c1 | 457 | 1860 | 2510 | – | 14000 | 1510 | 537 | 1820 | 1510 | 200 | 437 | 912 | – | > 10000
COc1cc([C@@H]2c3cc4c(cc3[C@H](O)[C@H]3COC(=O)[C@H]23)OCO4)cc(OC)c1OC | – | – | – | 84 | – | – | – | – | – | – | – | – | – | –
Nc1ccc2nc(-c3cccc(Cl)c3)cc(O)c2c1 | – | – | – | – | 6100 | 3160 | – | – | – | – | – | – | – | > 100000
CCOc1cccc(-c2cc(O)c3cc4c(cc3n2)OCO4)c1 | 275 | 269 | 251 | 40 | 470 | 182 | 44.7 | 64.6 | 324 | 17.8 | 174 | 191 | 166 | –
COc1cccc(-c2cc(O)c3cc(Cl)ccc3n2)c1 | – | – | – | 16 | 700 | – | – | – | – | – | – | – | – | –
Oc1cc(-c2cccc(Cl)c2)nc2cc3c(cc12)OCO3 | – | – | – | 45 | 370 | 269 | – | – | – | – | – | 209 | – | > 75900
COc1cccc(-c2cc(O)c3cc(N4CCCC4)ccc3n2)c1 | < 1 | < 1 | < 1 | – | – | < 1 | < 1 | < 1 | < 1 | < 1 | < 1 | < 1 | < 1 | 2000
COc1cccc(-c2cc(O)c3cc4c(cc3n2)OCO4)c1 | – | – | – | 39 | 570 | – | – | – | – | – | – | – | – | –
Oc1cc(-c2cccc(C(F)(F)F)c2)nc2cc3c(cc12)OCO3 | – | – | – | 5 | 820 | 1380 | – | – | – | – | – | – | – | –
Oc1cc(-c2ccccc2)nc2cc3c(cc12)OCO3 | – | – | – | 26 | 630 | – | – | – | – | – | – | – | – | –
COc1cccc(-c2cc(O)c3cc(N(C)C)ccc3n2)c1 | 18.6 | 43.6 | 34.7 | 14 | 380 | 4.57 | 8.91 | 15.5 | 44.7 | 1.7 | – | 25.7 | 15.1 | 5500
CN(C)c1cccc(-c2cc(O)c3cc4c(cc3n2)OCO4)c1 | – | – | – | 29 | 700 | – | – | – | – | – | – | – | – | –
COc1cccc(-c2cc(O)c3cc(N4CCOCC4)ccc3n2)c1 | – | 53.7 | 43.6 | 43 | 360 | 33.9 | 24.6 | 49 | 33.9 | 8.32 | 26.9 | 35.5 | 19.9 | 6310
Nc1cccc(-c2cc(O)c3cc4c(cc3n2)OCO4)c1 | 603 | 759 | – | 16 | 730 | 708 | 891 | 2400 | 2190 | – | 479 | 933 | – | 38900
Oc1cc(-c2cccc(OC(F)(F)F)c2)nc2cc3c(cc12)OCO3 | 40.7 | – | 45.7 | 40 | 500 | 36.3 | 36.3 | 25.7 | 195 | < 10 | 14.1 | 170 | 63.1 | 25.7
CNc1cccc(-c2cc(O)c3cc4c(cc3n2)OCO4)c1 | 363 | 5500 | – | 17 | 650 | 331 | 398 | 324 | 537 | – | 245 | 447 | 339 | –
COc1cccc(-c2cc(O)c3cc(NC(C)=O)ccc3n2)c1 | – | 5500 | – | – | 2100 | – | – | – | – | – | – | – | – | –
CC(=O)Nc1ccc2nc(-c3cccc(Cl)c3)cc(O)c2c1 | – | – | – | – | 2300 | – | – | – | – | – | – | – | – | > 100000
COc1cccc(-c2cc(O)c3cc(N)ccc3n2)c1 | – | – | – | – | 8700 | 3470 | – | – | – | – | – | – | – | –
Oc1cccc(-c2cc(O)c3cc4c(cc3n2)OCO4)c1 | – | 2290 | – | 26 | 470 | 3310 | 724 | 5500 | – | – | 1820 | 1480 | – | –
CC(=O)Nc1ccc2nc(-c3cccc(F)c3)cc(O)c2c1 | – | 25700 | – | – | – | – | – | 38900 | – | – | – | – | – | –
Oc1cc(-c2cccc(Br)c2)nc2cc3c(cc12)OCO3 | 2400 | 3020 | – | 26 | 530 | 3090 | 3470 | 331 | 3800 | – | 3390 | 4370 | 4270 | > 100000
Oc1cc(-c2cccc(F)c2)nc2cc3c(cc12)OCO3 | – | 661 | – | 51 | 530 | – | 339 | 141 | 955 | – | 219 | 269 | 288 | –
Nc1ccc2nc(-c3cccc(C(F)(F)F)c3)cc(O)c2c1 | – | – | 43700 | – | > 40000 | 34700 | – | – | – | – | 52500 | – | – | –
COc1ccc(CCc2cc(OC)c(OC)c(OC)c2)cc1O | – | – | – | – | 630 | – | – | – | – | – | – | – | – | –
Oc1cc(-c2cccc(OC(F)(F)F)c2)nc2ccc(N3CCCC3)cc12 | – | – | – | 58 | 720 | – | – | – | – | – | – | – | – | –
